Laboratory results: ChEMBL document CHEMBL1201862, “PubChem BioAssay data set” (2004)
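1) Cells in 96-well plates. 2) Compound, 48 h, 5 concentrations. 3) Linear interpolation between surrounding doses. 4) Unreached endpoint = highest concentration. Abbreviation: GI50, concentration required for 50% inhibition of growth.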 The source made the active and inactive calls. Cut-off read from the data, not from the text of the source: active = GI50 up to about 1.1 µM and inactive = higher.

Legend:
Test in all cases: growth of human tumour cells (NCI), 48 h
[1] = test system: SK-MEL-5
[2] = test system: NCI-H460
[3] = test system: HOP-62
[4] = test system: SR
[5] = test system: EKVX
[6] = test system: OVCAR-5
[7] = test system: NCI-H226
[8] = test system: M14
[9] = test system: U-251
[10] = test system: HOP-92
[11] = test system: SF-268
[12] = test system: HT-29
[13] = test system: MOLT-4
[14] = test system: NCI-H23
[15] = test system: SF-295
[16] = test system: NCI-H522
[17] = test system: CCRF-CEM
[18] = test system: HCC 2998
[19] = test system: A498

| SMILES | GI50 [1] | GI50 [2] | GI50 [3] | GI50 [4] | GI50 [5] | GI50 [6] | GI50 [7] | GI50 [8] | GI50 [9] | GI50 [10] | GI50 [11] | GI50 [12] | GI50 [13] | GI50 [14] | GI50 [15] | GI50 [16] | GI50 [17] | GI50 [18] | GI50 [19] |
| --- | --- | --- | --- | --- | --- | --- | --- | --- | --- | --- | --- | --- | --- | --- | --- | --- | --- | --- | --- |
| NC1OC(COC(=O)c2ccccc2)C(O)C(OC(=O)c2ccccc2)C1OC(=O)c1ccccc1 (stereo unspecified) | 14.4 µM (inactive) | 11.4 µM (inactive) | 22.7 µM (inactive) | > 10 µM (inactive) | 21.3 µM (inactive) | 24.3 µM (inactive) | 20.8 µM (inactive) | 24.3 µM (inactive) | 17.7 µM (inactive) | 35.2 µM (inactive) | 22.6 µM (inactive) | 17.3 µM (inactive) | 14.7 µM (inactive) | 25.4 µM (inactive) | 17.2 µM (inactive) | 23.9 µM (inactive) |  |  |  |
| c1ccc(CNCCCCNCCCNCc2ccccc2)cc1 | 17.6 µM (inactive) | 15.3 µM (inactive) | 22.2 µM (inactive) | 17.6 µM (inactive) | 25.6 µM (inactive) | 30.2 µM (inactive) | 20.2 µM (inactive) | 29.1 µM (inactive) | 17.8 µM (inactive) | 11.8 µM (inactive) | 18.8 µM (inactive) | 15.2 µM (inactive) | 14.3 µM (inactive) | 22 µM (inactive) | > 100 µM (inactive) | 15.2 µM (inactive) | 13 µM (inactive) | 16.9 µM (inactive) |  |
| CC(=O)N1C(Nc2ccccn2)CCN1c1ccccc1 (stereo unspecified) | > 10 µM (inactive) | > 10 µM (inactive) | > 10 µM (inactive) | > 10 µM (inactive) | > 10 µM (inactive) | > 10 µM (inactive) | > 10 µM (inactive) | > 10 µM (inactive) |  | > 10 µM (inactive) | > 10 µM (inactive) | > 10 µM (inactive) | > 10 µM (inactive) | > 10 µM (inactive) | > 10 µM (inactive) | > 10 µM (inactive) | > 10 µM (inactive) | > 10 µM (inactive) |  |
| Cc1ccc(S(=O)(=O)O)cc1.c1cc2c(c(NC3=NCCN3)c1)CCCC2 | > 100 µM (inactive) | > 100 µM (inactive) | > 100 µM (inactive) | > 100 µM (inactive) | > 100 µM (inactive) | > 100 µM (inactive) | > 100 µM (inactive) | > 100 µM (inactive) | > 100 µM (inactive) | > 100 µM (inactive) | > 100 µM (inactive) | 99.5 µM (inactive) | > 100 µM (inactive) | > 100 µM (inactive) | > 100 µM (inactive) | > 100 µM (inactive) | > 100 µM (inactive) |  | > 100 µM (inactive) |
| CC1(C)N=C(/C(Cl)=[N+](/[O-])C(=O)c2ccc(F)cc2)C(C)(C)N1O | 16.4 µM (inactive) | 31.9 µM (inactive) | 19.6 µM (inactive) | 4.16 µM (inactive) | 20.1 µM (inactive) | 18 µM (inactive) | 22.7 µM (inactive) | 16.1 µM (inactive) | > 10 µM (inactive) | 24.5 µM (inactive) | 16.9 µM (inactive) | 19.9 µM (inactive) |  | 17.1 µM (inactive) | 31.8 µM (inactive) |  | 0.466 µM (active) | 18.8 µM (inactive) |  |
| Cc1cccc2c1Oc1cc(Cl)ccc1C2NC(=O)CCN1CCOCC1 (stereo unspecified) | > 100 µM (inactive) | > 100 µM (inactive) | > 100 µM (inactive) | > 100 µM (inactive) | > 100 µM (inactive) | > 100 µM (inactive) |  | > 100 µM (inactive) | > 100 µM (inactive) | 18.1 µM (inactive) | > 100 µM (inactive) | 61.8 µM (inactive) | 49.4 µM (inactive) | > 100 µM (inactive) | > 100 µM (inactive) | > 100 µM (inactive) | > 100 µM (inactive) | > 100 µM (inactive) |  |
| CC(NC(=O)C(C)C(=O)NCc1ccc(C(F)(F)F)cc1)C(N)=O (stereo unspecified) | > 100 µM (inactive) | > 100 µM (inactive) |  | > 100 µM (inactive) | > 100 µM (inactive) | > 100 µM (inactive) | > 100 µM (inactive) | > 100 µM (inactive) | > 100 µM (inactive) | > 100 µM (inactive) | > 100 µM (inactive) | > 100 µM (inactive) | > 100 µM (inactive) | > 100 µM (inactive) | > 100 µM (inactive) | 34.9 µM (inactive) | > 100 µM (inactive) |  |  |
| Oc1ccc(/N=C/c2ccc(/C=N/c3ccc(O)cc3)cc2)cc1 | 15 µM (inactive) | 24.4 µM (inactive) | 17.6 µM (inactive) | 6.44 µM (inactive) | 32.1 µM (inactive) | 19.3 µM (inactive) | 14.6 µM (inactive) | 17.1 µM (inactive) | 14.5 µM (inactive) | 24.7 µM (inactive) | 15.5 µM (inactive) | 19.8 µM (inactive) | 3.88 µM (inactive) | 17.1 µM (inactive) | 16.8 µM (inactive) | 17.7 µM (inactive) | 6.41 µM (inactive) |  | 24.3 µM (inactive) |
